Experimental data: patent US20210008048A1, “COMPOSITIONS AND METHODS FOR CANCER TREATMENT” (Dana-Farber Cancer Institute, Inc., priority 2018, published 2021)
Where “and” joins values, the source holds several entries; their conditions need not be identical. Identical values can stand only once.

Tests used:
TLR8 [1] = target: T1, TLR8 (Homo sapiens, UniProt Q9NR97); conditions: TLR8-transfected HEK293 cells, cited from earlier work
T1 construct: expressed in transfected cells; host or cells: HEK293
T1 sequence (Q9NR97 27-1041): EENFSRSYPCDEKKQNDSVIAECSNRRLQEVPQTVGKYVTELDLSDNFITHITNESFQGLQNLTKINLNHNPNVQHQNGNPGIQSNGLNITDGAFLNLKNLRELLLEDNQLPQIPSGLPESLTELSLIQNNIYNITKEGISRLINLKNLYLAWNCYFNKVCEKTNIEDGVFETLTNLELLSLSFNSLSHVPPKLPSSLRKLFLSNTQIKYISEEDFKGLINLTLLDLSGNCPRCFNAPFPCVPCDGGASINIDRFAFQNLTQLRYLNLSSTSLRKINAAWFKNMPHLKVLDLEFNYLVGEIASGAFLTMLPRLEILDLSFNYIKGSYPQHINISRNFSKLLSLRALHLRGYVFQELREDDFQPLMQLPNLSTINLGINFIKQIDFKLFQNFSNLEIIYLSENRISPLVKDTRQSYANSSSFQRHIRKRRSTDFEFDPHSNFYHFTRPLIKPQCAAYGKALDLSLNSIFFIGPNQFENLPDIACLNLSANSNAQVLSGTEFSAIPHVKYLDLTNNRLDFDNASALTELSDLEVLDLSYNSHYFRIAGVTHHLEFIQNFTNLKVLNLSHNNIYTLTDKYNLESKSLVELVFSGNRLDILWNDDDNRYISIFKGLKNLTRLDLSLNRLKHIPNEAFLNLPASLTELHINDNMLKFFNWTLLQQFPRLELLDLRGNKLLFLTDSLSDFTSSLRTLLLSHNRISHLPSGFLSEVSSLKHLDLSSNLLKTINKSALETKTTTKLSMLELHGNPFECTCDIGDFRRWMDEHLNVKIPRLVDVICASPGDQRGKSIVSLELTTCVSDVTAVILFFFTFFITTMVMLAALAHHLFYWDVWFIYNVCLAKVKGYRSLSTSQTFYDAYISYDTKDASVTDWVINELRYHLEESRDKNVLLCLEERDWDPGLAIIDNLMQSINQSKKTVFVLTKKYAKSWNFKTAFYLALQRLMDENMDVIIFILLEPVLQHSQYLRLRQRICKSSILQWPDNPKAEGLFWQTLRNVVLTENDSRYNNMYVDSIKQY

TLR8 [2] = target: T1, TLR8; conditions: even at high concentrations (>10 μg/ml); cited from earlier work
TLR7 [3] = target: T2, TLR7 (Homo sapiens, UniProt Q9NYK1); conditions: TLR7-transfected HEK293 cells, cited from earlier work
T2 construct: expressed in transfected cells; host or cells: HEK293
T2 sequence (Q9NYK1 27-1049): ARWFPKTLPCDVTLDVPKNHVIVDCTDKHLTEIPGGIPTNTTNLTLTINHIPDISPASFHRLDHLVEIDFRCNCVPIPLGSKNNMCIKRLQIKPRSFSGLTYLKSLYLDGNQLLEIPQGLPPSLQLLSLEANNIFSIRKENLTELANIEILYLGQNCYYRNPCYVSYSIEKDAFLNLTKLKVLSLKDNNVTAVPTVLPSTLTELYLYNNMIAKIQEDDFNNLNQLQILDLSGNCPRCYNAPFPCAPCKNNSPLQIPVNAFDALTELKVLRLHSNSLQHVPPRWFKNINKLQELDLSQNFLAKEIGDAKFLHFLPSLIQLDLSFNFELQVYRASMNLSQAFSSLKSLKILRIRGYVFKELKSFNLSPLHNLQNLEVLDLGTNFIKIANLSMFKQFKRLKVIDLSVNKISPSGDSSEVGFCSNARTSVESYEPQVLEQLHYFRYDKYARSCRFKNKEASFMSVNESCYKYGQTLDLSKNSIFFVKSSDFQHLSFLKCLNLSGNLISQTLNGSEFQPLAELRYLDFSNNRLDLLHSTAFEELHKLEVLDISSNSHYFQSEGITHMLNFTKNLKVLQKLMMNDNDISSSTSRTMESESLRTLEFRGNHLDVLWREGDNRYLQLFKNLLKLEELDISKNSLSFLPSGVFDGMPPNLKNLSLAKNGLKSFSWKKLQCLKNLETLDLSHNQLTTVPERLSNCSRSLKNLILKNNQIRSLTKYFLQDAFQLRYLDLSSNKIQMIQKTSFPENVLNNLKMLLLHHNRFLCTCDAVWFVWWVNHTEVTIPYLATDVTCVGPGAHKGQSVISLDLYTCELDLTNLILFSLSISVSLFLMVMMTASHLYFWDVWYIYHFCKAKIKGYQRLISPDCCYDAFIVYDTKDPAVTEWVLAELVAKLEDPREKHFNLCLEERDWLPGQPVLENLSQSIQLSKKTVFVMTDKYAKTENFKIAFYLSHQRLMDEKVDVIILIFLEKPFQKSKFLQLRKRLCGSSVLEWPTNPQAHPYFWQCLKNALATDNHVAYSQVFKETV

[4] = system: 4T1-Luc2 breast cancer cells; assay: Survival after resection of orthotopic 4T1-Luc2 tumors with a loaded hydrogel implanted at the resection site; type: in vivo, female BALB/cJ mice; conditions: crosslinked hyaluronic acid hydrogel loaded with the agent placed in tumor resection site on day 10 post-tumor inoculation; extended local release; versus empty hydrogel
Experimental: The hydrogels for FIG. 1 were prepared according to the methods described for hydrogel 1 in Table 1. 120 μL of a hyaluronic acid solution (2.0% w/v GLYCOSIL) was pipetted into a mold. One mg of a p38 MAPK inhibitor (e.g., losmapimod (Selleckchem)) was dissolved in 10 μL DMSO, and this solution was added to the hyaluronic acid solution in the mold. Following mixing to create a homogeneous distribution of the payload, 30 μL of a PEG-diacrylate crosslinker solution (12.5% w/v EXTRALINK) was pipetted into the mold. The crosslinked hydrogel solidified in the mold over the course of a few minutes. Female BALB/cJ mice were inoculated orthotopically with 4T1-Luc2 breast cancer cells in their fourth mammary fat pad. On day 10 post-tumor inoculation, tumors (˜100 mm^3) were resected, and a hydrogel (e.g., a crosslinked hyaluronic acid hydrogel) loaded with a p38 MAPK inhibitor (e.g., losmapimod) was placed in the tumor resection site. Empty hydrogel was used as a negative control.
The hydrogels for FIG. 2 were prepared according to the methods described for hydrogel 1 in Table 1. 120 μL of a hyaluronic acid solution (2.0% w/v GLYCOSIL) was pipetted into a mold. Five hundred μg (40 μL) of an anti-IL-1β antibody (e.g., clone B122 (BioXCell)) was added to the hyaluronic acid solution in the mold. […]

TLR7 [5] = target: T2, TLR7; conditions: concentrations as low as; cited from earlier work
[6] = cited from earlier work

CCOC(=O)C1=Cc2ccc(-c3cccc(C#N)c3)cc2N=C(N)C1 [TL8-506]
potency in inducing NF-κB activation relative to CL075 (TLR8 [1]; more potent than CL075): ~25 × | potency in inducing NF-κB activation relative to R848 (TLR8 [1]; more potent than R848): ~50 ×

CCCCNc1nc(N)c2nc(O)n(Cc3ccc(C(=O)NCC(=O)O)cc3)c2n1 [CL264]
TLR8 stimulation (TLR8 [2]): does not stimulate TLR8 | concentration inducing NF-κB activation (TLR7 [3]): 0.1 µM | concentration triggering NF-κB activation, times less than imiquimod (TLR7 [3]; relative to imiquimod): 5-10 times

Cc1c(F)cc(C(=O)NC2CC2)cc1-c1ccc(C(=O)NCC(C)(C)C)cn1 [losmapimod]
survival (Kaplan-Meier) [4]: Prolonged survival benefit

CCCCNc1nc(N)c2nc(O)n(Cc3ccc(C(=O)NCC(=O)NCCCNCCCCNCCCN)cc3)c2n1 [CL307, N1-glycinyl[4-((6-amino-2-(butylamino)-8-hydroxy-9H-purin-9-yl)methyl)benzoyl] spermine]
concentration inducing robust NF-κB activation (TLR7 [5]): 20 nM and 10 ng/ml

CCOCc1nc2c(N)nc3ccccc3c2[nH]1 [CL097]
water solubility [6]: ≥ 20 mg/mL
